Measurements reported in patent publication US10183015B2, “Heterocyclic compounds and methods of use” (Medivation Technologies LLC, priority 2015, dated 2019).
Where “and” joins values, the source holds several entries; their conditions need not be identical. Equal values may be shown once.

Columns and labels:
[1] = system: diet-induced NASH obese insulin resistant mice; experiment: DIN mouse model: blood glucose, plasma insulin, HOMA-IR; assay type: in vivo; details: for HOMA-IR index reduction / HOMA-IR day 0 / blood glucose day 0 / plasma insulin day 0: 20 mg/kg; for HOMA-IR day 0 / blood glucose day 0 / plasma insulin day 0: day 0 (baseline); for HOMA-IR day 42 / blood glucose day 42 / plasma insulin day 42: day 42, 20 mg/kg; for HOMA-IR day 70 / blood glucose day 70 / plasma insulin day 70: day 70, 20 mg/kg;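 as to blood glucose day 0: blood glucose in mg/dL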;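 as to blood glucose day 42: blood glucose in mg/dL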;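 as to blood glucose day 70: blood glucose in mg/dL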
Description: Male C57Bl/6J mice (8 weeks old) were housed in enriched ventilated cages (31×12.5×12.7 cm) throughout the experimental phase. Animals' cages litters were changed at least once a week. Animal were housed 5 per cage on inverted 12-hour light cycle (at 09:00 am lights off), 22±2° C. and 55±10% relative humidity. The acclimation period was 20 days. During the acclimation period, all mice were fed a standard diet (RM1 (E) 801492, SDS) and tap water ad libitum. After the acclimation period, mice were fed with the DIN diet (60% fat, cholesterol enriched) and fructose-enriched tap water ad libitum until the end of the experiment.
At 6 weeks of diet, mice were 4-hour fasted (09:00 am to 1:00 pm) and blood (150 μl/EDTA) was collected at 01:00 pm by retro-orbital bleeding under isoflurane anesthesia. Mice were then allocated in 2 homogenous groups (n=12/group) according to their plasma levels of ALT (average levels: 685U/L), AST (average levels: 627U/L) and HOMA-IR index (average value: 4.7), into 2 homogenous groups (see values at day 0 in Tables 15A and 15B ALT/AST and Tables 16A and 16B for HOMA-IR). Mice were then treated once daily by oral gavage with vehicle (Group 1) or Compound #37 at 20 mg/kg (Group 2) for 70 days.
To investigate whether Compound #37 improves pre-existing steatosis/NASH pathology, a study was conducted using a 16-week diet-induced NASH mouse model. In this model, mice develop steatosis that progresses with inflammation and fibrosis that mimic many of the observed pathologies in human nonalcoholic fatty liver disease (NAFLD) and NASH (Hebbard & George, 2010). For 6 weeks, mice were fed a high-fat, high-cholesterol diet and provided drinking water containing fructose to induce liver pathology (Charlton et al, 2011). After 6 weeks, the mice were divided into 2 groups with similar mean aspartate aminotransferase (AST) and alanine aminotransferase (ALT) values (n=12 mice), although it should be noted that AST and ALT concentrations within both groups were higher and with greater variability than anticipated (e.g., mean ALT 677 U/L [SD, 401 U/L] in the vehicle control group and 693 U/L [SD, 365 U/L] in the Compound #37 group). After the animals were divided into 2 groups, the diet was continued for 10 additional weeks during which time 1 group received vehicle and the other was treated with 20 mg/kg/day Compound #37.

SREBP = experiment: SREBP-responsive promoter luciferase reporter assay in HepG2_LSSprom cells; assay type: cell-based; details: 6 hours of treatment, medium without serum; read-out: IC50 for luciferase expression
Description: HepG2_LSSprom cells were cultured in DMEM with 10% fetal bovine serum and 1% penicillin/streptomycin for 24 hours. Cells were then treated with increasing concentrations of Compound #37 or an equal volume of DMSO in culture medium without serum. Luciferase expression was measured and compared after 6 hours of treatment.

[2] = system: 60% high fat Paigen diet induced NASH mouse model; experiment: Short-term Paigen-diet NASH mouse model: liver Oil Red O staining; assay type: in vivo; details: 40 mg/kg p.o. (stopped after 4 administrations), 9 days of diet
INSIG1 = experiment: Short-term Paigen-diet NASH mouse model: hepatic INSIG1 gene expression (RT-qPCR); assay type: in vivo; details: liver, 21 days; for DDct: INSIG1 Dct relative to vehicle mean; for Dct: INSIG1 minus 18S; for 2DDct: INSIG1 relative expression to vehicle group, normalized to 18S; for INSIG1: raw RT-qPCR value
Description: To investigate whether Compound #37 prevents the development of pathology associated with NASH and steatosis in an acute exploratory disease model, a study was conducted using a diet-induced acute liver steatosis model in mice. As described below, in this study, C57BL/6J mice were initiated on the Paigen diet and simultaneously treated with Compound #37 (5, 20, and 40 mg/kg/day) or vehicle control (20% HPβCD 10 mL/kg/day) by oral gavage for 21 days.
After acclimation, 8-week old male C57Bl/6J mice (Charles River) weighing about 25 g were randomized in 4 groups according their body weight and treated once daily around noon by oral gavage with vehicle, or Compound #37 at various for 21 days as follows: Group 1: vehicle-20% (2-hydroxypropyl)-β-cyclodextrin (HP-β-CD) (n=10); Group 2: Compound #37, 5 mg/kg (n=10) Group 3: Compound #37, 20 mg/kg (n=10) Group 4: Compound #37, 40 mg/kg (n=10). During the treatment period, body weight and food intake (measured over 24h) were measured 3 times per week and once a week, respectively. During the acclimation, all mice were fed a standard diet (Special Diets Services RM1 (E), product no. 801492) and tap water ad libitum. After the acclimation period, mice were fed until the end of the experiment with a 60% high fat Paigen diet (60 kcal % fat, 1.25% cholesterol, and 0.5% cholate; D11061901, Research Diet) and tap water ad libitum.
Gene expression analysis. Hepatic expression levels of genes involved in lipid metabolism (FAS, SREBP1, ACC1, SCD1), cholesterol metabolism (HMG-CoAR, LDLR), SREBP proteolysis (SCAP, INSIG1), ER stress (PERK), oxidative stress (NRF2), inflammation (MCP-1), and fibrosis (collagen 1α1) were quantified by RTqPCR. Expression level was normalized to 18S gene expression and relative expression to vehicle group was calculated with the […] method.

[3] = Compound #37 5 mg/kg, group mean, n=10
[4] = Compound #37 5 mg/kg, individual animals, 5 mg/kg
[5] = Compound #37 20 mg/kg, group mean, n=6
[6] = Compound #37 20 mg/kg, individual animals, 20 mg/kg

## CC(C)Cc1cc(-c2nc(-c3ccc(NS(=O)(=O)C(F)(F)F)cc3Cl)cs2)ccn1 [Compound 37, N-(3-chloro-4-(2-(2-isobutylpyridin-4-yl)thiazol-4-yl)phenyl)-1,1,1-trifluoromethanesulfonamide]
[1]; day 42, not significant
  HOMA-IR index reduction: 50%
[1]; day 70, not significant
  HOMA-IR index reduction: 40%
[1]; group mean, n 12
  HOMA-IR day 0: 4.8 [mM × μU/mL]/22.5
  blood glucose day 0: 104 mg/dL
  plasma insulin day 0: 17 μU/mL
  HOMA-IR day 42: 3.7 [mM × μU/mL]/22.5
  blood glucose day 42: 133 mg/dL
  plasma insulin day 42: 11.5 μU/mL
[1]; individual animals
  HOMA-IR day 0: 2.7 [mM × μU/mL]/22.5 and 4.1 [mM × μU/mL]/22.5 and 23.6 [mM × μU/mL]/22.5 and 2.1 [mM × μU/mL]/22.5 (2×) and 2.3 [mM × μU/mL]/22.5 (2×) and 1.9 [mM × μU/mL]/22.5 and 1.8 [mM × μU/mL]/22.5 and 3.8 [mM × μU/mL]/22.5 and 1.6 [mM × μU/mL]/22.5 and 8.8 [mM × μU/mL]/22.5
  blood glucose day 0: 97 mg/dL and 113 mg/dL (2×) and 123 mg/dL and 106 mg/dL and 79 mg/dL and 95 mg/dL and 114 mg/dL and 102 mg/dL and 89 mg/dL and 112 mg/dL and 103 mg/dL
  plasma insulin day 0: 11.3 μU/mL and 14.7 μU/mL and 77.6 μU/mL and 8.1 μU/mL and 11.9 μU/mL and 6.9 μU/mL and 7.5 μU/mL (2×) and 13.6 μU/mL and 8.4 μU/mL and 31.9 μU/mL and 9 μU/mL
  HOMA-IR day 42: 3.8 [mM × μU/mL]/22.5 (2×) and 3.3 [mM × μU/mL]/22.5 and 5.0 [mM × μU/mL]/22.5 and 7.7 [mM × μU/mL]/22.5 and 2.8 [mM × μU/mL]/22.5 (3×) and 1.9 [mM × μU/mL]/22.5 and 3.7 [mM × μU/mL]/22.5 and 3.5 [mM × μU/mL]/22.5 and 3.4 [mM × μU/mL]/22.5
  blood glucose day 42: 133 mg/dL and 139 mg/dL (2×) and 112 mg/dL and 126 mg/dL and 128 mg/dL and 132 mg/dL and 131 mg/dL and 138 mg/dL and 151 mg/dL and 140 mg/dL and 127 mg/dL
  plasma insulin day 42: 11.6 μU/mL and 9.5 μU/mL and 18.0 μU/mL and 24.8 μU/mL and 8.9 μU/mL and 11.8 μU/mL and 5.8 μU/mL and 8.2 μU/mL (2×) and 10.0 μU/mL and 10.2 μU/mL and 10.7 μU/mL
  HOMA-IR day 70: 7.5 [mM × μU/mL]/22.5 and 2.6 [mM × μU/mL]/22.5 and 6.0 [mM × μU/mL]/22.5 and 5.8 [mM × μU/mL]/22.5 and 3.9 [mM × μU/mL]/22.5 and 2.8 [mM × μU/mL]/22.5 and 6.5 [mM × μU/mL]/22.5 and 2.5 [mM × μU/mL]/22.5 and 3.8 [mM × μU/mL]/22.5 and 3.1 [mM × μU/mL]/22.5 and 4.5 [mM × μU/mL]/22.5
  blood glucose day 70: 138 mg/dL and 132 mg/dL and 135 mg/dL and 157 mg/dL and 136 mg/dL and 124 mg/dL and 127 mg/dL and 100 mg/dL and 114 mg/dL and 130 mg/dL and 141 mg/dL
  plasma insulin day 70: 21.9 μU/mL and 8.0 μU/mL and 18.1 μU/mL and 15.1 μU/mL and 11.5 μU/mL and 9.3 μU/mL and 20.6 μU/mL and 10.3 μU/mL and 13.4 μU/mL and 9.8 μU/mL and 12.9 μU/mL
[1]; group mean, n 11
  HOMA-IR day 70: 4.5 [mM × μU/mL]/22.5
  blood glucose day 70: 130 mg/dL
  plasma insulin day 70: 13.7 μU/mL
SREBP
  IC50: 2.7 µM
[2]; group mean
  Liver O red Oil staining, % labeling: 1.87%
[2]; individual animals
  Liver O red Oil staining, % labeling: 2.53% and 2.54% and 1.12% and 1.28%
INSIG1; [3]
  DDct: 0.28
  Dct: 12
  2DDct: 0.87
  INSIG1: 24.2
INSIG1; [4]
  DDct: −0.58 and 0.21 and 0.48 and −0.03 and 0.34 and 1.45 and 0.09 and 0.52 and 0.32 and 0.05
  Dct: 11.1 and 11.89 and 12.16 and 11.65 and 12.02 and 13.13 and 11.77 and 12.2 and 12 and 11.73
  2DDct: 1.5 and 0.87 and 0.72 and 1.02 and 0.79 and 0.37 and 0.94 and 0.7 and 0.8 and 0.97
  INSIG1: 24.56 and 25 (2×) and 23.77 and 24.05 and 26.48 and 23.37 and 23.99 and 23.14 and 22.85
INSIG1; [5]
  DDct: 0.15
  Dct: 11.8
  2DDct: 0.99
  INSIG1: 24
INSIG1; [6]
  DDct: 0.5 and 0.75 and 0.51 and −0.67 and 0.62 and −0.76
  Dct: 12.18 and 12.43 and 12.19 and 11.01 and 12.3 and 10.92
  2DDct: 0.71 and 0.6 and 0.7 and 1.6 and 0.65 and 1.7
  INSIG1: 25.09 and 24.72 and 24.39 and 24.04 and 23.79 and 22.18
